Values of other authors in US6683169B2, “Nucleic acid encoding the human peptide histidine transporter 1 and methods of use thereof” (Rutgers, The State University of New Jersey, priority 2000, dated 2004).
Peptide text beside a SMILES is read from it.

Target: T1, rPHT1 (Rattus norvegicus, UniProt O09014)
T1 construct: host or cells: Xenopus oocytes
Settings: rPHT1 in Xenopus oocytes; for inhibition of histidine transport: inhibition studies

T1 sequence (O09014 whole entry): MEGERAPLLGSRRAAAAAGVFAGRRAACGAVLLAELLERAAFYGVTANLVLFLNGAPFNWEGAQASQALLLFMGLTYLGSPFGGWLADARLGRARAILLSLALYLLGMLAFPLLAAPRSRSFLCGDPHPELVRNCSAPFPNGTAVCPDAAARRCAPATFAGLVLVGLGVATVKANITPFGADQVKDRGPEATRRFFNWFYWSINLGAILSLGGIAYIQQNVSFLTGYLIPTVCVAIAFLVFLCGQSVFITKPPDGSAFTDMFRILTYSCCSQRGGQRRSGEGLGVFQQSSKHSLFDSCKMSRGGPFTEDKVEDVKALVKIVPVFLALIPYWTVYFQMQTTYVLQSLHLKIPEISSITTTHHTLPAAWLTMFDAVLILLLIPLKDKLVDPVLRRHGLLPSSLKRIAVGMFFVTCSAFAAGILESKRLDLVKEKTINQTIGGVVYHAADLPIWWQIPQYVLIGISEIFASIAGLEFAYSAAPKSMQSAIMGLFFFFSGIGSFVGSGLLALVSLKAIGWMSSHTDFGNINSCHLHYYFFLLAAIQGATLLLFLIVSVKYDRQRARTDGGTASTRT

CC(C)C[C@H](NC(=O)CN)C(=O)O [Gly-Leu]
inhibition of histidine transport: inhibited

NCC(=O)NCC(=O)O [Gly-Gly] (H-Gly-Gly-OH)
inhibition of histidine transport: inhibited

NCC(=O)NCC(=O)NCC(=O)O [Gly-Gly-Gly] (H-Gly-Gly-Gly-OH)
inhibition of histidine transport: inhibited

NCCC(=O)N[C@@H](Cc1cnc[nH]1)C(=O)O [carnosine]
carnosine uptake versus water-injected control oocytes ([3H]carnosine): significantly higher
inhibition of histidine transport: inhibited
